Experiment: Solid stability test of the crystal forms (influence factors and acceleration tests; appearance, XRPD, HPLC content and impurities)
Format: physicochemical
Conditions: for photostability (stability under light radiation), conclusion in words / stability in dark, conclusion in words / stability under acceleration conditions, conclusion in words / thermal stability (high temperature), conclusion in words: conclusion of influence factors and acceleration tests
Description: A sample of the crystal form A was placed on the bottom of a glass sample bottle, and spread to a thin layer. The sample stored under high temperature, high humidity, and acceleration conditions was placed in a bottle of which the mouth was packed with a pierced aluminum foil to ensure the sample to be sufficiently exposed to ambient air; the sample stored under light radiation conditions was placed at room temperature in a standing bottle of which the mouth was open, the sample was exposed to a light resource, and sampled for detection after being radiated by sufficient energy. Samples were taken and analyzed at various time points, and the test results were compared with the initial test results of 0 day, the inspection items included appearance, content and impurities, and the test results are shown in Table 9.
A sample of the crystal form B (10 mg) was placed on the bottom of a glass sample bottle, and spread to a thin layer. The sample stored under high temperature, high humidity, and acceleration conditions were placed in a bottle of which the mouth was packed with a pierced aluminum foil to ensure the sample to be sufficiently exposed to ambient air; the sample stored under light radiation conditions was placed at room temperature in a standing bottle of which the mouth was open, the sample was exposed to a light resource, and sampled for detection after being radiated by sufficient energy, the control sample stored in dark (open, the whole sample bottle was sealed with aluminum foil to keep the content in dark) and the sample stored under light radiation conditions were placed together to exclude environmental influence on the samples. Samples were taken and analyzed at various time points, and the test results were compared with the initial test results of 0 day, the inspection items included appearance, crystal form, content and impurities, the test results are shown in Table 10.
(§1) A sample of the crystal form C was taken and placed on the bottom of a glass sample bottle, and spread to a thin layer. The sample stored under high temperature, high humidity, and acceleration conditions was placed in a bottle of which the mouth was packed with a pierced aluminum foil to ensure the sample to be sufficiently exposed to ambient air; the sample stored under light radiation conditions was placed at room temperature in a standing bottle of which the mouth was open, the sample was exposed to a light resource, and sampled for detection after being radiated by sufficient energy. Samples were taken and analyzed at various time points, and the test results were compared with the initial test results of 0 day.
as §1, with “D” for “C”
A sample of the crystal form E (10 mg) was taken and placed on the bottom of a glass sample bottle, and spread to a thin layer. […]

[1] = Acceleration test (40° C./relative humidity of 75%, open), 1 month
[2] = Acceleration test (40° C./relative humidity of 75%, open), 10 days
[3] = Acceleration test (60° C./relative humidity of 75%, open), 1 month
[4] = Acceleration test (60° C./relative humidity of 75%, open), 10 days
[5] = High humidity (room temperature/relative humidity of 92.5%, open), 5 days
[6] = High humidity (room temperature/relative humidity of 92.5%, open), 10 days
[7] = High temperature (60° C., open), 5 days
[8] = High temperature (60° C., open), 10 days
[9] = Light radiation (total illumination: 1.2 × 10^6 Lux·hr/near ultraviolet: 200 w·hr/m^2, open), light radiation sample
[10] = Light radiation test, control sample in dark
[11] = Acceleration test (40° C./relative humidity of 75%, open), 2 months
[12] = Acceleration test (40° C./relative humidity of 75%, open), 3 months
[13] = Acceleration test (60° C./relative humidity of 75%, open), 2 months
[14] = Acceleration test (60° C./relative humidity of 75%, open), 3 months

## C=CC(=O)N[C@H]1COC[C@H]1Nc1ncc(/C=C(\F)c2c(Cl)c(OC)cc(OC)c2Cl)cn1.CS(=O)(=O)O [Crystal Form E]
0 day (initial)
  Appearance: White
  Content (%): 101.51%
  Crystal Form (XRPD): form E
  Total Impurities (%): 0.44%
[1]
  Appearance: White
  Content (%): 102.95%
  Crystal Form (XRPD): form E
  Total Impurities (%): 0.33%
[2]
  Appearance: White
  Content (%): 99.58%
  Crystal Form (XRPD): form E
  Total Impurities (%): 0.35%
[3]
  Appearance: White
  Content (%): 102.48%
  Crystal Form (XRPD): form E
  Total Impurities (%): 0.40%
[4]
  Appearance: White
  Content (%): 100.38%
  Crystal Form (XRPD): form E
  Total Impurities (%): 0.37%
[5]
  Appearance: White
  Crystal Form (XRPD): form E
[6]
  Appearance: White
  Content (%): 101.24%
  Crystal Form (XRPD): form E
  Total Impurities (%): 0.34%
[7]
  Appearance: White
  Crystal Form (XRPD): form E
[8]
  Appearance: White
  Content (%): 100.37%
  Crystal Form (XRPD): form E
  Total Impurities (%): 0.50%
[9]
  Appearance: White
  Content (%): 98.70%
  Crystal Form (XRPD): form E
  Total Impurities (%): 0.49%
[10]
  Appearance: White
  Content (%): 100.87%
  Crystal Form (XRPD): form E
  Total Impurities (%): 0.37%
  photostability (stability under light radiation), conclusion in words: slight impurity generation
  stability in dark, conclusion in words: good stability
  stability under acceleration conditions, conclusion in words: superior
  thermal stability (high temperature), conclusion in words: superior

## C=CC(=O)N[C@H]1COC[C@H]1Nc1ncc(/C=C(\F)c2c(Cl)c(OC)cc(OC)c2Cl)cn1 [Crystal Form B]
0 day (initial)
  Appearance: Off-white
  Content (%): 99.21%
  Crystal Form (XRPD): form B
  Total Impurities (%): 0.41%
[1]
  Appearance: Off-white
  Content (%): 99.49%
  Crystal Form (XRPD): form B
  Total Impurities (%): 0.43%
[11]
  Appearance: Off-white
  Crystal Form (XRPD): form B
[12]
  Appearance: Off-white
  Content (%): 96.23%
  Crystal Form (XRPD): form B
  Total Impurities (%): 0.31%
[2]
  Appearance: Off-white
  Content (%): 101.21%
  Crystal Form (XRPD): form B
  Total Impurities (%): 0.43%
[3]
  Appearance: Off-white
  Content (%): 98.68%
  Crystal Form (XRPD): form B
  Total Impurities (%): 0.42%
[13]
  Appearance: Off-white
  Crystal Form (XRPD): form B
[14]
  Appearance: Off-white
  Content (%): 96.71%
  Crystal Form (XRPD): form B
  Total Impurities (%): 0.31%
[4]
  Appearance: Off-white
  Content (%): 100.91%
  Crystal Form (XRPD): form B
  Total Impurities (%): 0.42%
[5]
  Appearance: Off-white
  Crystal Form (XRPD): form B
[6]
  Appearance: Off-white
  Content (%): 101.03%
  Crystal Form (XRPD): form B
  Total Impurities (%): 0.42%
[7]
  Appearance: Off-white
  Crystal Form (XRPD): form B
[8]
  Appearance: Off-white
  Content (%): 100.74%
  Crystal Form (XRPD): form B
  Total Impurities (%): 0.42%
[9]
  Appearance: Off-white
  Content (%): 92.90%
  Crystal Form (XRPD): form B
  Total Impurities (%): 2.21%
[10]
  Appearance: Off-white
  Content (%): 100.23%
  Crystal Form (XRPD): form B
  Total Impurities (%): 0.42%
  photostability (stability under light radiation), conclusion in words: slight impurity generation
  stability in dark, conclusion in words: good stability
  stability under acceleration conditions, conclusion in words: superior
  thermal stability (high temperature), conclusion in words: superior

— patent publication US11440903B2, “Salt form and crystal form of compound as FGFR4 inhibitor and preparation method thereof” (GUANGDONG ZHONGSHENG PHARMACEUTICAL CO., LTD, priority 2017, dated 2022)
